Reference: ChEMBL document CHEMBL1150321
Calls of active or inactive are those of the source. The rule behind the calls is not given here.

Legend:
[1] = biological target: Baculoviral IAP repeat-containing protein 2 (Homo sapiens) (UniProt Q13490); experiment: Binding affinity to human BIR3 domain of cIAP1 by fluorescence polarization assay
[2] = biological target: Baculoviral IAP repeat-containing protein 2 (Homo sapiens) (UniProt Q13490); experiment: Binding affinity to human BIR3 domain of cIAP1 by photoaffinity labeling assay in presence of (S)-2-((2S,3R)-3-Amino-2-hydroxy-4-phenyl-butyrylamino)-4-methyl-pentanoic acid methyl ester
[3] = biological target: Baculoviral IAP repeat-containing protein 2 (Homo sapiens) (UniProt Q13490); experiment: Binding affinity to human BIR3 domain of cIAP1 at 150 uM after 30 mins by photoaffinity labeling assay in presence of (S)-2-((2S,3R)-3-Amino-2-hydroxy-4-phenyl-butyrylamino)-4-methyl-pentanoic acid methyl ester

Baculoviral IAP repeat-containing protein 2 (Homo sapiens), sequence (Q13490 whole entry, looked up, the tested form may be a part): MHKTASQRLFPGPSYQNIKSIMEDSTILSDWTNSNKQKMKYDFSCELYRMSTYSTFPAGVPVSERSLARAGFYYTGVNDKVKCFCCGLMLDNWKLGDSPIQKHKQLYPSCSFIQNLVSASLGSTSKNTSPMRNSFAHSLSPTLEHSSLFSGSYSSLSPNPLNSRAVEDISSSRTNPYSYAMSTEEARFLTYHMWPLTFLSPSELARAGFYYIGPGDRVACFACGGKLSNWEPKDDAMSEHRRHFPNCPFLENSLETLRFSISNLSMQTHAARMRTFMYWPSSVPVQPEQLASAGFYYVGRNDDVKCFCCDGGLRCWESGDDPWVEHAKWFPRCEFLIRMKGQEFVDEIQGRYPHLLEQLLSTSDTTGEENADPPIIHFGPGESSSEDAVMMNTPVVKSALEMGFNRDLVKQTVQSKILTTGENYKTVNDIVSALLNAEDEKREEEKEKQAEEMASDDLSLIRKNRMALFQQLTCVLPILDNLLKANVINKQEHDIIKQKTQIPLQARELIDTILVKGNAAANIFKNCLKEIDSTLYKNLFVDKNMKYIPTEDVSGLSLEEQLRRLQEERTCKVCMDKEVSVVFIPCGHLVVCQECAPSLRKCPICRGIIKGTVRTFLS

| Compound | Activity [1] | Activity [2] | Activity [3] |
| --- | --- | --- | --- |
| CC(C)C[C@H](NC(=O)[C@@H](O)[C@H](N)Cc1ccccc1)C(=O)OCCNS(=O)(=O)c1cccc2c(N(C)C)cccc12 | Active | Active | – |
| CC(C)C[C@H](NC(=O)[C@@H](O)[C@H](N)Cc1ccccc1)C(=O)OCCNS(=O)(=O)c1cccc2c(N=[N+]=[N-])cccc12 | – | – | Active |
